Converted amounts (≈) assume the structure as drawn. Like-named read-outs stand apart in the source and are kept apart here.
Assays:
Scytalidium hyalinum = assay: Antifungal Activity Test 2: MIC by broth microdilution method (Alamar Blue); type: cell-based; conditions: Neoscytalidium hyalinum
Procedure: (§1) The minimum inhibitory concentration (MIC) was measured by a broth microdilution method. That is, RPMI1640 medium (Sigma-Aldrich) was buffered with 0.165 M morpholine propanesulfonic acid (MOPS, Wako Pure Chemical Industries, Ltd.) to pH 7.0, and a given amount of a solution of the drug in DMSO was added thereto to prepare 2-fold dilution series within the range of 0.00098-4 μg/mL. This was added to a 96-well microplate by 100 μL, a fungal inoculum solution (100 μL, final concentration of fungi to be added: 1.0×10^4 cells/mL) was added, and the mixture was cultured at 35° C. An Alamar Blue reagent was added in advance to the culture medium (final addition concentration: 10%) and, at the time point when the Alamar Blue reagent in the drug-free growth control group changed from blue to red, the culture was discontinued and the absorbance (differential optical density at 570 nm based on 590 nm served as reference) measured. The minimum concentration of the drug that inhibited the growth of the fungus in the growth control group by 80% or more was taken as MIC. The concentration to be MIC (MIC90) in 9 strains out of the 10 strains (90%) measured was determined.
Scytalidium hyalinum strain of clinical isolate available from CBS (Netherlands) was used. The fungus was pre-cultured in an SDA medium, 0.1% (w/v) Tween 80-containing sterile saline was added to give a suspension, which was filtered through gauze to collect arthrospore. This was suspended in 0.1% (w/v) Tween 80-containing sterile saline, and added to a 20% Alamar Blue-containing medium to 2×10^4 cells/mL to give a fungal inoculum solution.
(§2) Each drug was used after dissolving in DMSO (dimethyl sulfoxide).
The test method was the same as in the aforementioned antifungal activity test 1, and the minimum concentration of the drug that inhibited the growth of the fungus in the growth control group by 80% or more was taken as MIC. The MIC range of the 4 strains measured and the geometric mean (GM) of each drug were determined.

Scytalidium dimidiatum = assay: Antifungal Activity Test 1: MIC by broth microdilution method (Alamar Blue); type: cell-based; conditions: Neoscytalidium dimidiatum; for MIC: growth inhibited by 80% or more, read-out: MIC; for MIC90: concentration to be MIC in 9 strains out of the 10 strains (90%), read-out: MIC90
Text: Scytalidium dimidiatum strain of clinical isolate obtained by separation and identification from nail or stratum corneum of patients with superficial mycosis was used. The fungi pre-cultured on an SDA medium was suspended in 0.1% (w/v) Tween 80-containing sterile saline and the suspension was filtered through gauze to collect arthrospore. This was suspended in 0.1% (w/v) Tween 80-containing sterile saline, and added to a 20% Alamar Blue-containing medium to 2×10^4 cells/mL to give a fungal inoculum solution.
as §2, §1
Reference documents for measurement method: Takako Shinoda et al.: opinion proposed by Committee for Clinical Laboratory Standards of The Japanese Society for Medical Mycology (1995-1997), Method for antifungal susceptibility testing of filamentous fungus, Medical Mycology Journal, 40: 239-257, 1999. Clinical Laboratory Standards Institute/National Committee for Clinical Laboratory Standards. Reference method for broth dilution antifungal susceptibility testing of filamentous fungus. Approved Standard M38-A2. Wayne, Pa.: National Committee for Clinical Laboratory Standards, 2008. Test Results

[1] = clinical isolate CBS200.88, growth inhibited by 80% or more, read-out: MIC
[2] = clinical isolate CBS545.95, growth inhibited by 80% or more, read-out: MIC
[3] = clinical isolate CBS601.85, growth inhibited by 80% or more, read-out: MIC
[4] = clinical isolate CBS619.84, growth inhibited by 80% or more, read-out: MIC
[5] = geometric mean of the 4 strains measured, read-out: GM (geometric mean of MIC)
[6] = range of the 4 strains measured, read-out: MIC range

Row | Compound | MIC (Scytalidium hyalinum; [1]) | MIC (Scytalidium hyalinum; [2]) | MIC (Scytalidium hyalinum; [3]) | MIC (Scytalidium hyalinum; [4]) | MIC (Scytalidium hyalinum; [5]) | MIC (Scytalidium dimidiatum; clinical isolate 530129) | MIC (Scytalidium dimidiatum; clinical isolate 530142) | MIC (Scytalidium dimidiatum; clinical isolate 530251) | MIC (Scytalidium dimidiatum; clinical isolate 530621) | MIC (Scytalidium dimidiatum; clinical isolate 530633) | MIC (Scytalidium dimidiatum; clinical isolate 530914) | MIC (Scytalidium dimidiatum; clinical isolate 530946) | MIC (Scytalidium dimidiatum; clinical isolate 530999) | MIC (Scytalidium dimidiatum; clinical isolate 531581) | MIC (Scytalidium dimidiatum; clinical isolate 531869) | MIC90 (Scytalidium dimidiatum) | MIC (Scytalidium hyalinum; [6])
1 | CCC(C)n1ncn(-c2ccc(N3CCN(c4ccc(OCC5COC(Cn6cncn6)(c6ccc(Cl)cc6Cl)O5)cc4)CC3)cc2)c1=O (centres unmarked) [ITZ, itraconazole] | > 4 µg/mL | > 4 µg/mL | 0.016 µg/mL (≈ 0.0227 µM) | > 4 µg/mL | > 4 µg/mL | > 4 µg/mL | > 4 µg/mL | > 4 µg/mL | > 4 µg/mL | > 4 µg/mL | > 4 µg/mL | > 4 µg/mL | > 4 µg/mL | > 4 µg/mL | > 4 µg/mL | > 4 µg/mL | 
2 | CC(=O)N1CCN(c2ccc(OCC3COC(Cn4ccnc4)(c4ccc(Cl)cc4Cl)O3)cc2)CC1 (centres unmarked) [KCZ, ketoconazole] | 2 µg/mL (≈ 3.76 µM) | 1 µg/mL (≈ 1.88 µM) | 0.031 µg/mL (≈ 0.0583 µM) | 2 µg/mL (≈ 3.76 µM) | 0.59 µg/mL (≈ 1.11 µM) | 4 µg/mL (≈ 7.53 µM) | > 4 µg/mL | > 4 µg/mL | > 4 µg/mL | 4 µg/mL (≈ 7.53 µM) | > 4 µg/mL | > 4 µg/mL | > 4 µg/mL | > 4 µg/mL | 2 µg/mL (≈ 3.76 µM) | > 4 µg/mL | 0.031 to 2 µg/mL (≈ 0.0583 to 3.76 µM)
3 | N#C/C(=C1/SCC(c2ccccc2Cl)S1)n1ccnc1 (centres unmarked) [LCZ, [4-(2-chlorophenyl)-1,3-dithioran-2-ylidene](1H-imidazol-1-yl)acetonitrile] | 0.002 µg/mL (≈ 0.00625 µM) | 0.00098 µg/mL (≈ 0.00306 µM) | 0.00024 µg/mL (≈ 0.00075 µM) | 0.002 µg/mL (≈ 0.00625 µM) | 0.00098 µg/mL (≈ 0.00306 µM) | 0.0039 µg/mL (≈ 0.0122 µM) | 0.002 µg/mL (≈ 0.00625 µM) | 0.0039 µg/mL (≈ 0.0122 µM) | 0.0039 µg/mL (≈ 0.0122 µM) | 0.0039 µg/mL (≈ 0.0122 µM) | 0.0039 µg/mL (≈ 0.0122 µM) | 0.0039 µg/mL (≈ 0.0122 µM) | 0.002 µg/mL (≈ 0.00625 µM) | 0.0039 µg/mL (≈ 0.0122 µM) | 0.002 µg/mL (≈ 0.00625 µM) | 0.0039 µg/mL (≈ 0.0122 µM) | 0.00024 to 0.002 µg/mL (≈ 0.00075 to 0.00625 µM)

Continued, values first:

Row | MIC (Scytalidium hyalinum; [1]) | MIC (Scytalidium hyalinum; [2]) | MIC (Scytalidium hyalinum; [3]) | MIC (Scytalidium hyalinum; [4]) | MIC (Scytalidium hyalinum; [5]) | MIC (Scytalidium dimidiatum; clinical isolate 530129) | MIC (Scytalidium dimidiatum; clinical isolate 530142) | MIC (Scytalidium dimidiatum; clinical isolate 530251) | MIC (Scytalidium dimidiatum; clinical isolate 530621) | MIC (Scytalidium dimidiatum; clinical isolate 530633) | MIC (Scytalidium dimidiatum; clinical isolate 530914) | MIC (Scytalidium dimidiatum; clinical isolate 530946) | MIC (Scytalidium dimidiatum; clinical isolate 530999) | MIC (Scytalidium dimidiatum; clinical isolate 531581) | MIC (Scytalidium dimidiatum; clinical isolate 531869) | MIC90 (Scytalidium dimidiatum) | MIC (Scytalidium hyalinum; [6]) | Compound
4 | 0.00098 µg/mL (≈ 0.00277 µM) | 0.00098 µg/mL (≈ 0.00277 µM) | 0.00012 µg/mL (≈ 0.000339 µM) | 0.00098 µg/mL (≈ 0.00277 µM) | 0.00058 µg/mL (≈ 0.00164 µM) | 0.002 µg/mL (≈ 0.00565 µM) | 0.002 µg/mL (≈ 0.00565 µM) | 0.002 µg/mL (≈ 0.00565 µM) | 0.002 µg/mL (≈ 0.00565 µM) | 0.002 µg/mL (≈ 0.00565 µM) | 0.002 µg/mL (≈ 0.00565 µM) | 0.002 µg/mL (≈ 0.00565 µM) | 0.002 µg/mL (≈ 0.00565 µM) | 0.002 µg/mL (≈ 0.00565 µM) | 0.00098 µg/mL (≈ 0.00277 µM) | 0.002 µg/mL (≈ 0.00565 µM) | 0.00012 to 0.00098 µg/mL (≈ 0.000339 to 0.00277 µM) | N#C/C(=C1/SC[C@@H](c2ccc(Cl)cc2Cl)S1)n1ccnc1 [LLCZ, (−)-(E)-[(4R)-(2,4-dichlorophenyl)-1,3-dithioran-2-ylidene](1H-imidazol-1-yl)acetonitrile]
5 | 0.5 µg/mL (≈ 1.2 µM) | 0.5 µg/mL (≈ 1.2 µM) | 0.063 µg/mL (≈ 0.151 µM) | 0.5 µg/mL (≈ 1.2 µM) | 0.3 µg/mL (≈ 0.721 µM) | 1 µg/mL (≈ 2.4 µM) | 1 µg/mL (≈ 2.4 µM) | 1 µg/mL (≈ 2.4 µM) | 1 µg/mL (≈ 2.4 µM) | 0.5 µg/mL (≈ 1.2 µM) | 1 µg/mL (≈ 2.4 µM) | 1 µg/mL (≈ 2.4 µM) | 0.5 µg/mL (≈ 1.2 µM) | 0.5 µg/mL (≈ 1.2 µM) | 0.5 µg/mL (≈ 1.2 µM) | 1 µg/mL (≈ 2.4 µM) | 0.063 to 0.5 µg/mL (≈ 0.151 to 1.2 µM) | Clc1ccc(COC(Cn2ccnc2)c2ccc(Cl)cc2Cl)c(Cl)c1 (centres unmarked) [MCZ, miconazole]
6 | 0.25 µg/mL (≈ 0.858 µM) | 0.5 µg/mL (≈ 1.72 µM) | 1 µg/mL (≈ 3.43 µM) | 0.25 µg/mL (≈ 0.858 µM) | 0.42 µg/mL (≈ 1.44 µM) | 0.5 µg/mL (≈ 1.72 µM) | 0.25 µg/mL (≈ 0.858 µM) | 0.5 µg/mL (≈ 1.72 µM) | 0.5 µg/mL (≈ 1.72 µM) | 0.25 µg/mL (≈ 0.858 µM) | 0.25 µg/mL (≈ 0.858 µM) | 1 µg/mL (≈ 3.43 µM) | 0.5 µg/mL (≈ 1.72 µM) | 0.5 µg/mL (≈ 1.72 µM) | 0.5 µg/mL (≈ 1.72 µM) | 0.5 µg/mL (≈ 1.72 µM) | 0.25 to 1 µg/mL (≈ 0.858 to 3.43 µM) | CN(C/C=C/C#CC(C)(C)C)Cc1cccc2ccccc12 [TBF, terbinafine]
